Measured values: patent publication US9902752B2, “5-fluorouracil derivatives” (B. Braun Melsungen AG, priority 2012, dated 2018)
Read-outs that look alike come from different tables or passages of the source. One block for each compound: values may come before it. {19c} = modification given as compound (19c) in the publication; {25} = modification given as compound (25) in the publication; {Cy3} = Cy-3 fluorescent dye

Legend:
[1] = Free diffusion times of oligonucleotides (without bilayer); type: physicochemical; details: diluted 50 nM oligomer solution
Description: From the fluorescence signals of single molecules which pass the excitation volume, the diffusion constants can be calculated. In order to determine the diffusion times of the fluorescent oligonucleotides within and near the bilayer, they were measured at five different positions above, below and within the layer. At each point five measurements for 30 s, each, were taken. In summary, each measuring protocol was as follows: (i) a reference scan of the stable (empty) bilayer; (ii) addition of the sample with 25 min of incubation, followed by a scan series; (iii) additional scan series, each after a 1., 2., and 3. perfusion (60 s, each).
The diffusion times (μs) of 41 and 42 were measured, both without and in the presence of an artificial bilayer. For the determination of the free diffusion times the corresponding oligomer solution (50 nM) was diluted so that in the confocal measuring volume (˜10^−15 l) only one fluorescent molecule was present. Each measurement was performed ten-fold for 30 s, each. In order to determine the diffusion times of the lipophilized oligonucleotides (41, 42) in the presence of a bilayer five measuring positions above, beneath and in the bilayer were chosen. This was necessary because the bilayer is floating within certain limits, which makes it difficult to target it most exactly (FIG. 5, measuring points 1-5). […]

[2] = Diffusion times of oligonucleotides in the presence of a lipid bilayer; type: physicochemical
Description: The incorporation of the oligonucleotides into artificial bilayers was performed at a lipid mixture of 1-palmitoyl-2-oleyl-sn-glycero-3-phosphoethanolamine (POPE) and 1-palmitoyl-2-oleyl-sn-glycero-3-phosphocholine (POPC) (8:2, w/w, 100 mg/ml of n-decane). For the preparation of the horizontal bilayers, planar slides (Ionovation GmbH, D-Osnabrück) were used. These slides contain chambers for cis- and trans compartments as well as electrode access (see FIG. 1). The main body of the slides contains of PTFE foil (thickness, 25 μm) with an aperture of ˜100 μm diameter. This foil separates the chamber into the cis- and trans compartments which are only connected by the aperture. After filling of the chamber with buffer (250 mM KCl, 10 mM MOPS/TRIS, pH 7), the cis- and trans compartments were linked with Ag/AgCl electrodes—embedded in agarose/3 M KCl). Then, a soln. of the POPC/POPE lipid mixture (0.2 μl) is applied onto the aperture of the PTFE foil using a Hamilton syringe (Hamilton, CH-Bonaduz). […] The formation of a stable bilayer was monitored both, optically using a laser scanning microscope (Insight Cell 3D, Evotec Technologies GmbH, D-Hamburg) as well as electrically by capacity measurements. […] The optical pictures of fluorescence fluctuations were obtained with a confocal laser scanning microscope (Insight Cell 3D, Evotec Technologies GmbH, D-Hamburg), equipped with a He—Ne laser (543 nm), a 40× water-immersion objective (UApo 340, 40×, NA=1.15, Olympus, 3-Tokyo), and an Avalanche photodiode detector (SPCM-AQR-13-FC, Perkin-Elmer Optoelectronics, Fremont, USA). Fluorescence irradiation was obtained with a laser power of 200±5 μW. […]
From the fluorescence signals of single molecules which pass the excitation volume, the diffusion constants can be calculated. In order to determine the diffusion times of the fluorescent oligonucleotides within and near the bilayer, they were measured at five different positions above, below and within the layer. […]
The diffusion times (μs) of 41 and 42 were measured, both without and in the presence of an artificial bilayer. […]

[3] = Bilayer insertion of lipophilic oligonucleotides (fluorescence scans); type: physicochemical; details: for incorporation into the artificial bilayer: brightness of the layers, 25 min incubation; for retention in the bilayer after perfusions: perfusions of 60 s each
Description: The incorporation of the oligonucleotides into artificial bilayers was performed at a lipid mixture of 1-palmitoyl-2-oleyl-sn-glycero-3-phosphoethanolamine (POPE) and 1-palmitoyl-2-oleyl-sn-glycero-3-phosphocholine (POPC) (8:2, w/w, 100 mg/ml of n-decane). For the preparation of the horizontal bilayers, planar slides (Ionovation GmbH, D-Osnabrück) were used. These slides contain chambers for cis- and trans compartments as well as electrode access (see FIG. 1). The main body of the slides contains of PTFE foil (thickness, 25 μm) with an aperture of ˜100 μm diameter. This foil separates the chamber into the cis- and trans compartments which are only connected by the aperture. After filling of the chamber with buffer (250 mM KCl, 10 mM MOPS/TRIS, pH 7), the cis- and trans compartments were linked with Ag/AgCl electrodes—embedded in agarose/3 M KCl). Then, a soln. of the POPC/POPE lipid mixture (0.2 μl) is applied onto the aperture of the PTFE foil using a Hamilton syringe (Hamilton, CH-Bonaduz). A small Faraday cage shields the bilayer and the electrodes from HF-electrical noise. Next, a bilayer is made-up automatically using a perfusion system (Bilayer Explorer V01, Ionovation GmbH, D-Osnabrück). The formation of a stable bilayer was monitored both, optically using a laser scanning microscope (Insight Cell 3D, Evotec Technologies GmbH, D-Hamburg) as well as electrically by capacity measurements. When a stable bilayer had been obtained (capacity, […]), the corresponding oligonucleotide soln. (50 nM, 4 μl) was injected into the cis compartment of the chip. During an incubation time of 25 min the intactness of the bilayer was electro-physiologically controlled using a headstage EPC 10 USB with a patch clamp amplifier (software: Patchmaster, HEKA Elektronik Dr. Schulze GmbH, D-Lambrecht). The optical pictures of fluorescence fluctuations were obtained with a confocal laser scanning microscope (Insight Cell 3D, Evotec Technologies GmbH, D-Hamburg), equipped with a He—Ne laser (543 nm), a 40× water-immersion objective (UApo 340, 40×, NA=1.15, Olympus, 3-Tokyo), and an Avalanche photodiode detector (SPCM-AQR-13-FC, Perkin-Elmer Optoelectronics, Fremont, USA). Fluorescence irradiation was obtained with a laser power of 200±5 μW. 2D and 3D scans were performed by scanning the confocal spot in XY direction with a rotating beam scanner and movement of the objective in Z direction. The movement in both directions was piezo controlled which allows a nano-meter precise positioning. For the 2D pictures (Z-scans, FIGS. 2 and 3) the confocal plane was moved in 100 nm steps. […]

[4] = pKBH+ value of the nucleoside; type: physicochemical
[5] = Lipophilicity as chromatographic mobility, RP-18 HPLC retention time; type: physicochemical; details: MeCN/0.1 M Et3NH+OAc− (35:65, v/v, pH 7.0)
Description: RP-18 HPLC was carried out on a 250×4 mm RP-18 column (Merck, Germany) on a Merck-Hitachi HPLC apparatus with one pump (Model 655A-12) connected with a proportioning valve, a variable wavelength monitor (Model 655 A), a controller (Model L-5000), and an integrator (Model D-2000). Solvent: MeCN/0.1 M Et3NH^+OAc^− (35:65, v/v, pH 7.0).
The lipophilicity of various 5-fluorouridine derivatives has been studied since the lipophilicity has inter alia an influence on the incorporation into oligo(2′-deoxynucleotides). The lipophilicity of the novel hydrophobic nucleoside derivatives has been studied in different by two ways: (i) log P values of the compounds were calculated (Table 4) and compared with those of the unmodified nucleoside 1a, (ii) the chromatographic mobilities of the compounds were measured in terms of retention times (tR in min) by RP-18 HPLC.

[6] = 1N aq. HCl/MeCN, 1:1 (v/v); cited from earlier work
[7] = tested on: HT-29 (human colon carcinoma) cell line; assay: Viability/survival of HT-29 cells (PrestoBlue); type: cell-based; details: HT-29, 10-80 μM, 24, 48 or 72 h; vs comparative compounds, 5-fluorouridine and 5-fluorouracil
Description: In vitro experiments were performed using HT-29 (human colon carcinoma) cell line (DSMZ, GmbH, Braunschweig, Germany). The cells were cultured in 90% RPMI 1640 supplemented with 10% fetal bovine serum (FBS), 100 U/ml penicillin, 0.1 mg/ml streptomycin. Cells were maintained at 37° C. in a humidified atmosphere of 5% CO2 and 95% air; the medium was changed every 48 h.
1×10^4 human HT-29 in 100 μl medium/well were seeded in 96-well plates (BD Falcon™, Becton Dickinson GmbH, Heidelberg, Germany). After 24 h, the medium was changed and different concentrations of 5-fluorouracil, 5-fluorouridin and 5-fluorouridin derivative molecules (10, 20, 40 or 80 μM) were tested. After 24, 48 or 72 h incubation, viability/survival was measured using PrestoBlue™ reagent (Invitrogen-Life Technologies GmbH, Darmstadt, Germany). PrestoBlue™ reagent is more sensible than alamarBlue®, which is a redox indicator of enzyme activity widely used in whole organism screening for viability/cytotoxicity (1-6). PrestoBlue™ was directly added to the cells into the culture medium at a final concentration of 10%. Thereafter the plates were returned to the incubator. 30 min, 1 h, 2 h, 3 h and 4 h after addition of PrestoBlue™ the optical density (OD) was measured at 570 nm and 600 nm (as reference) with a SUNRISE ELISA-reader (Tecan, Salzburg, Austria). […]

[8] = cited from earlier work
[9] = measuring point 3, after 1. perfusion

Compound: 5′-d[(19c)-(Cy-3)-TAG GTC AAT ACT]. (DNA TAGGTCAATACT; DNA, 5' {19c}-{Cy3}, backbone not given here) [Oligomer 42]
- Free diffusion time [1]: 390.39 ± 249.05 μs
- Diffusion time in the presence of a bilayer [2, 9]: 75952 ± 8201, after 1 perfusion μs
- Diffusion time in the presence of a bilayer ([2]; measuring point 3, after 3. perfusion): 19891 ± 3266, after 3. perfusion μs
- incorporation into the artificial bilayer [3]: better inserted
- retention in the bilayer after perfusions [3]: do not lead to a significant removal

Compound: 5′-d[(25)-(Cy-3)-TAG GTC AAT ACT] (DNA TAGGTCAATACT; DNA, 5' {25}-{Cy3}, backbone not given here) [Oligomer 41]
- Free diffusion time [1]: 279.67 ± 141.08 μs
- Diffusion time in the presence of a bilayer [2, 9]: 33547 ± 16751, after 1. perfusion μs
- incorporation into the artificial bilayer [3]: successfully incorporated
- retention in the bilayer after perfusions [3]: brightness of the layer decreases after two perfusions

- pKBH+ [4]: 8.0±0.1
- RP-18 HPLC tR [5]: 1 min
Compound: O=c1[nH]c(=O)n([C@@H]2O[C@H](CO)[C@@H](O)[C@H]2O)cc1F [Compound 1a, 5-Fluorouridine, reference compound]

- melting point: 196 to 197 °C
Compound: CC1(C)O[C@@H]2[C@H](O1)[C@@H](CO)O[C@H]2n1cc(F)c(=O)[nH]c1=O [Compound 19a, 5-Fluoro-1-((3aR,4R,6R,6aR)-6-(hydroxymethyl)-2,2-dimethyltetrahydrofuro[3,4-d][1,3]dioxol-4-yl)pyrimidine-2,4(1H,3H)-dione]

Compound: CCCC1(CCC)OC2[C@@H](O1)[C@@H](CO)O[C@H]2n1cc(F)c(=O)[nH]c1=O (some centres unmarked) [Compound 19b, 5-Fluoro-2,3′-O-(1-propylbutylidene)uridine]
- acidic stability at the ketal group, T [6]: 130 min

- RP-18 HPLC tR [5]: >600 min
Compound: CCCCCCCCCC1(CCCCCCCCC)O[C@@H]2[C@H](O1)[C@@H](CO)O[C@H]2n1cc(F)c(=O)[nH]c1=O [Compound 19c, 5-Fluoro-1-((3aR,4R,6R,6aR)-6-(hydroxymethyl)-2,2-dinonyltetrahydrofuro[3,4-d][1,3]dioxol-4-yl)pyrimidine-2,4(1H,3H)-dione]

- RP-18 HPLC tR [5]: 27 min
Compound: CC(C)=CCC/C(C)=C/CC/C(C)=C/Cn1c(=O)c(F)cn([C@@H]2O[C@H](CO)[C@@H](O)[C@H]2O)c1=O [Compound 23, 1-((2R,3R,4S,5R)-3,4-dihydroxy-5-(hydroxymethyl)tetrahydrofuran-2-yl)-5-fluoro-3-((2E,6E)-3,7,11-trimethyldodeca-2,6,10-trien-1-yl)pyrimidine-2,4(1H,3H)-dione]

- RP-18 HPLC tR [5]: 24 min
Compound: CC(C)=CCC/C(C)=C/CC/C(C)=C/Cn1c(=O)c(F)cn([C@@H]2O[C@H](CO)[C@H]3OC(C)(C)O[C@H]32)c1=O [Compound 24, 5-Fluoro-1-((3aR,4R,6R,6aR)-6-(hydroxymethyl)-2,2-dimethyltetrahydrofuro-[3,4-d][1,3]dioxol-4-yl)-3-((2E,6E)-3,7,11-trimethyldodeca-2,6,10-trien-1-yl)pyrimidine-2,4(1H,3H)-dione]

- RP-18 HPLC tR [5]: 87 min
Compound: CCCC1(CCC)OC2C(O1)[C@@H](CO)O[C@H]2n1cc(F)c(=O)n(C/C=C(\C)CC/C=C(\C)CCC=C(C)C)c1=O (stereo partly drawn) [Compound 25, 5-Fluoro-1-((3aR,4R,6R,6aR)-6-(hydroxymethyl)-2,2-dipropyitetrahydrofuro-[3,4-d][1,3]dioxol-4-yl)-3-((2E,6E)-3,7,11-trimethyldodeca-2,6,10-trien-1-yl)pyrimidine-2,4(1H,3H)-dione]

Compound: CC(C)=CCC/C(C)=C/CC/C(C)=C/Cn1c(=O)c(F)cn([C@@H]2O[C@H](CO)C3OC4(CCCCCCCCCCC4)OC32)c1=O (some centres unmarked) [Compound 31a, 2′,3′-O-Cyclododecane-1,1-diyl-5-fluoro-3-[(2E,6E)-3,7,11-trimethyldodeca-2,6,10-trien-1-yl]uridine]
- activity against carcinoma cells [7]: significant higher activity

Compound: O=c1[nH]cc(F)c(=O)[nH]1 [fluorouracil, 5-fluorouracil]
- half life ([8]; with uracil (UFT, DPD inhibition)): 10 to 14 h
- half life ([8]; without uracil): 0.167 to 0.5 h
